Assay results reported in paper doi:10.1101/2021.04.08.439011v1 (biorxiv, 2021).

What was measured:
Details in all cases: 0.1 µM; binder
[1] = target: AKT2 (Homo sapiens, UniProt P31751)
[2] = target: ALK(C1156Y) (Homo sapiens, UniProt Q9UM73, C1156Y)
[3] = target: CDKL1 (Homo sapiens, UniProt Q00532)
[4] = target: CSNK2A2 (Homo sapiens, UniProt P19784)
[5] = target: DAPK3 (Homo sapiens, UniProt O43293)
[6] = target: EGFR(L861Q) (Homo sapiens, UniProt P00533, L861Q)
[7] = target: EPHB3 (Homo sapiens, UniProt P54753)
[8] = target: ERK5 (Homo sapiens, UniProt Q13164)
[9] = target: FLT3(K663Q) (Homo sapiens, UniProt P36888, K663Q)
[10] = target: GSK3B (Homo sapiens, UniProt P49841)
[11] = target: IRAK4 (Homo sapiens, UniProt Q9NWZ3)
[12] = target: MAP4K5 (Homo sapiens, UniProt Q9Y4K4)
[13] = target: MET(Y1235D) (Homo sapiens, UniProt P08581, Y1235D)
[14] = target: MLK2 (Homo sapiens, UniProt Q02779)
[15] = target: MRCKB (Homo sapiens, UniProt Q9Y5S2)
Chain of MRCKB (Q9Y5S2 whole entry): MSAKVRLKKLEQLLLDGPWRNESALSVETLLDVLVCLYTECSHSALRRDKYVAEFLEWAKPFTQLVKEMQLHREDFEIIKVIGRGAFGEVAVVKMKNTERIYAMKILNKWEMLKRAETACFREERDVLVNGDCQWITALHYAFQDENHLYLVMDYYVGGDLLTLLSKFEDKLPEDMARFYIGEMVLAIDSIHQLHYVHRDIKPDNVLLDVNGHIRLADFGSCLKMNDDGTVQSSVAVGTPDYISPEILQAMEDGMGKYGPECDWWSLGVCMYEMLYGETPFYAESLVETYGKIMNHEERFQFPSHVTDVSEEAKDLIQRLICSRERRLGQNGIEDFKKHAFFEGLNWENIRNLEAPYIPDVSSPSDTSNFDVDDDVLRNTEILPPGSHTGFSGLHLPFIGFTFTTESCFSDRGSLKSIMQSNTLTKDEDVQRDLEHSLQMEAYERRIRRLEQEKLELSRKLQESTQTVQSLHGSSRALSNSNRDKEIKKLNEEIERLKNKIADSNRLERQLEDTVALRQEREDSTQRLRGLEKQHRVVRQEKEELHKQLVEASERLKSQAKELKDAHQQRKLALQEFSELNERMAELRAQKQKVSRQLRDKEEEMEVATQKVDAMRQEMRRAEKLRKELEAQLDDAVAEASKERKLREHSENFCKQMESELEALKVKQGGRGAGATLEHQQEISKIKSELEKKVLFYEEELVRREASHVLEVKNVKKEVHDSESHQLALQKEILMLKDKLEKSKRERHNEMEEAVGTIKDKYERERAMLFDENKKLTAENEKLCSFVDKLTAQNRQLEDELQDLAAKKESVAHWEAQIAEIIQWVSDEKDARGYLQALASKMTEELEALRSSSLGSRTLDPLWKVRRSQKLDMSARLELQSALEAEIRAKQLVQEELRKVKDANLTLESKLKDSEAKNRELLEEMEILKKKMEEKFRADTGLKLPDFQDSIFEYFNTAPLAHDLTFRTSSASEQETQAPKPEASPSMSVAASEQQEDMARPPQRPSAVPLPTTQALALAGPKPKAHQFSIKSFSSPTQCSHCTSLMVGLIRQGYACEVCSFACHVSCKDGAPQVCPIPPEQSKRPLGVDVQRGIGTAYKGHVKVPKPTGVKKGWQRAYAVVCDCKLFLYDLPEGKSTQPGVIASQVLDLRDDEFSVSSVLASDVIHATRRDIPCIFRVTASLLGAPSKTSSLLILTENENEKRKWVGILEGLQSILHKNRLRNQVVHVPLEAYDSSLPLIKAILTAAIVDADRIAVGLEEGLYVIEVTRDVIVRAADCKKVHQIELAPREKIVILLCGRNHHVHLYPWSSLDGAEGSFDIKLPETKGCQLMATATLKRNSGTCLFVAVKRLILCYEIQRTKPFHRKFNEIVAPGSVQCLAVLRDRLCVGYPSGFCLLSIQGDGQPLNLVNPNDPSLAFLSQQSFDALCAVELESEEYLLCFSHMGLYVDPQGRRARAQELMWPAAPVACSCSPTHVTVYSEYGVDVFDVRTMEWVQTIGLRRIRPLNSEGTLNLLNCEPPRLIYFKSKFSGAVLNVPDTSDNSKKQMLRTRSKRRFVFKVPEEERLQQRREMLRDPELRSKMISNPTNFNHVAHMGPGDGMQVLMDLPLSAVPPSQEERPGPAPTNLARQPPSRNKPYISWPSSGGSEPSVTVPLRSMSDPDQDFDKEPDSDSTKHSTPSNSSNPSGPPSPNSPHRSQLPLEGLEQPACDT

[16] = target: MUSK (Homo sapiens, UniProt O15146)
[17] = target: NEK1 (Homo sapiens, UniProt Q96PY6)
Chain of NEK1 (Q96PY6 whole entry): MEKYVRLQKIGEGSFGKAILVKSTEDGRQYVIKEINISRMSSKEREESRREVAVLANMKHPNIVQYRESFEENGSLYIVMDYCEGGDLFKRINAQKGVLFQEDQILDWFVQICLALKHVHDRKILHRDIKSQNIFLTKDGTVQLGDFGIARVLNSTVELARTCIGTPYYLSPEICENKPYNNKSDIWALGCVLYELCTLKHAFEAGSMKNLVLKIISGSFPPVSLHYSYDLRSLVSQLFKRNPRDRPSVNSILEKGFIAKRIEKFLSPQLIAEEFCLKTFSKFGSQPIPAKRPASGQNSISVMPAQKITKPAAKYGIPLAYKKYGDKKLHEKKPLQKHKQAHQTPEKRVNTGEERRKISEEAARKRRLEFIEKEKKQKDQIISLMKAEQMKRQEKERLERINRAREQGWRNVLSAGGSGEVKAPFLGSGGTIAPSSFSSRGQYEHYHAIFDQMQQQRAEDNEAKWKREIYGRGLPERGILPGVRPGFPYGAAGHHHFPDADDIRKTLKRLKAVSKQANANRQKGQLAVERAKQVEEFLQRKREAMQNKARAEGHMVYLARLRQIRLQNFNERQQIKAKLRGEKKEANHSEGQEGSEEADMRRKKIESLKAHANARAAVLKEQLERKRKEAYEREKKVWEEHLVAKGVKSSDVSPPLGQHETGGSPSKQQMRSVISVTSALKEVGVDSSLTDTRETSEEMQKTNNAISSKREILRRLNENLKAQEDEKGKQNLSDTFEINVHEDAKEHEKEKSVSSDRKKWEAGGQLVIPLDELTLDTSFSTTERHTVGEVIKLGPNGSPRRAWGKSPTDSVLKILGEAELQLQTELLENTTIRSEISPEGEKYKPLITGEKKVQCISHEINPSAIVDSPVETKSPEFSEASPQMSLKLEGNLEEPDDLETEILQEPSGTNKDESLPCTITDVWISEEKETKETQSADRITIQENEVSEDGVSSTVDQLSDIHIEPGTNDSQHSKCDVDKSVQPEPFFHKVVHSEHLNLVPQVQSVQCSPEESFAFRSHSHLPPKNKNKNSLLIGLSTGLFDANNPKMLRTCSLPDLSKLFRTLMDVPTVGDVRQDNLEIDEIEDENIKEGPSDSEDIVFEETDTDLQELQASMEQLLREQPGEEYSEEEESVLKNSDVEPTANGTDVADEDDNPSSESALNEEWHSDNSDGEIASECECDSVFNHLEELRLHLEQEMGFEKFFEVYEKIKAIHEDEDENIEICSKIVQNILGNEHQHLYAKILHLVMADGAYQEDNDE

[18] = target: NEK10 (Homo sapiens, UniProt Q6ZWH5)
[19] = target: PAK2 (Homo sapiens, UniProt Q13177)
[20] = target: PHKG1 (Homo sapiens, UniProt Q16816)
Chain of PHKG1 (Q16816 whole entry): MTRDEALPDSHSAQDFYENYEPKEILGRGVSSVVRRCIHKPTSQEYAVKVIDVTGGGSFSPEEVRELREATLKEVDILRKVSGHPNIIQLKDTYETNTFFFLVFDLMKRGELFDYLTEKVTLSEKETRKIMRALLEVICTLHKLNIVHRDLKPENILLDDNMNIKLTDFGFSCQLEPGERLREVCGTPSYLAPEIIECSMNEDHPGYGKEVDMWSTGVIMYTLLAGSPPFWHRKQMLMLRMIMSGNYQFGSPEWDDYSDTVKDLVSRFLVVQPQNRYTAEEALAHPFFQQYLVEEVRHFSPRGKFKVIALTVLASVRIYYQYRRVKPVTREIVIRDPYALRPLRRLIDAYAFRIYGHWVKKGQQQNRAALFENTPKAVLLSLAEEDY

[21] = target: PIK3CA (Homo sapiens, UniProt P42336)
[22] = target: PIK3CD (Homo sapiens, UniProt O00329)
[23] = target: PIP4K2B (Homo sapiens, UniProt P78356)
[24] = target: PKAC-alpha (Homo sapiens, UniProt P17612)
[25] = target: PKN2 (Homo sapiens, UniProt Q16513)
[26] = target: PRKCE (Homo sapiens, UniProt Q02156)
[27] = target: PRKCI (Homo sapiens, UniProt P41743)
[28] = target: SGK (Homo sapiens, UniProt O00141)
[29] = target: TGFBR1 (Homo sapiens, UniProt P36897)
Chain of TGFBR1 (P36897 whole entry): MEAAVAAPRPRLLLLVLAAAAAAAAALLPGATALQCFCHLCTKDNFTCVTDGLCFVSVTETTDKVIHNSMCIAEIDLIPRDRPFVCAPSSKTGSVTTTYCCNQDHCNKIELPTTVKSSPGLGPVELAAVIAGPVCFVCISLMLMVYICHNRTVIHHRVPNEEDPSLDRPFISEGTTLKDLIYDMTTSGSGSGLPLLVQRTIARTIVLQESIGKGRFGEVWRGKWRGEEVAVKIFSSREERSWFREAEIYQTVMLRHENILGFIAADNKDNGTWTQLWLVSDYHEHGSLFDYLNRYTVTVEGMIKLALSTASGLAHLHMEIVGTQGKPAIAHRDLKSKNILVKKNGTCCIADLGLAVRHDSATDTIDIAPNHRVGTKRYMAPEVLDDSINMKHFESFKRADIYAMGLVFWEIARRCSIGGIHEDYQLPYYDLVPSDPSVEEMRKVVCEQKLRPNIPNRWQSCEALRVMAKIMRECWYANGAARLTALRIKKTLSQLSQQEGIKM

[30] = target: TNNI3K (Homo sapiens, UniProt Q59H18)
[31] = target: TXK (Homo sapiens, UniProt P42681)

Chain of DAPK3 (O43293 whole entry): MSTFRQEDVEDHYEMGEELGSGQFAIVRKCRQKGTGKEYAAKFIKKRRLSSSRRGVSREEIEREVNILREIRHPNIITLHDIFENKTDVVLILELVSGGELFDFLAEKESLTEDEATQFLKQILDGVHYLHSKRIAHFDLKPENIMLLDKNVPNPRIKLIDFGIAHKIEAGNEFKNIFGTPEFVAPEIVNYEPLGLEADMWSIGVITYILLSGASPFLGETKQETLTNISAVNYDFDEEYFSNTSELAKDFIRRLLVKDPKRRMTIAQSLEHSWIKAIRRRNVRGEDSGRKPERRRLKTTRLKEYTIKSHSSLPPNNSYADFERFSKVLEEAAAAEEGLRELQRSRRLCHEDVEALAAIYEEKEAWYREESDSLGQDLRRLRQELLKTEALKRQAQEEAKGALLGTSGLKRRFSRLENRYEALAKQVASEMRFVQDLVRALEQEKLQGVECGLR
Chain of CSNK2A2 (P19784 whole entry): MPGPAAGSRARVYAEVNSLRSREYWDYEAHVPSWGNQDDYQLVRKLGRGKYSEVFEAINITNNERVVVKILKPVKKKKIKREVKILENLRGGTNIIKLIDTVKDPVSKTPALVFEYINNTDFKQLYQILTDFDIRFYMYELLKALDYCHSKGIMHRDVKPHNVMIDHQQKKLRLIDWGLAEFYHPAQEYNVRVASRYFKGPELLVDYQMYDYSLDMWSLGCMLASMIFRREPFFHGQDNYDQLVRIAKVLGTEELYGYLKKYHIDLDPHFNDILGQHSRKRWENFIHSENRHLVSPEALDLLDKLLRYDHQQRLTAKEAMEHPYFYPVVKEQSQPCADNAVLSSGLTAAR
Chain of CDKL1 (Q00532 whole entry): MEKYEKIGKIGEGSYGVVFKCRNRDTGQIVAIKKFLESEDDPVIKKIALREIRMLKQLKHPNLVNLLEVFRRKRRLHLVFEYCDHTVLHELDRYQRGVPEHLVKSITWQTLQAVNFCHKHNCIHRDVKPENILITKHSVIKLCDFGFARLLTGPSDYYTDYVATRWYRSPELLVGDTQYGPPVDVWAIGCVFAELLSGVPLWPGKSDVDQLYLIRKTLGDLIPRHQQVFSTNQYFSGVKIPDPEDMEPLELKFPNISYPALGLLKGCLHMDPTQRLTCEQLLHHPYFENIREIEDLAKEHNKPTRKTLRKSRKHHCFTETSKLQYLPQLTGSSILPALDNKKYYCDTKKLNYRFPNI

SMILES: CNc1ncc2cc(-c3ccc(-c4cccc(C)n4)cc3Cl)c(=O)n(C[C@H]3OC[C@H](N)CO3)c2n1 [compound 6, G-5555]
- Percent Control [1]: 100%
- Percent Control [2]: 100%
- Percent Control [3]: 100%
- Percent Control [4]: 96%
- Percent Control [5]: 100%
- Percent Control [6]: 100%
- Percent Control [7]: 100%
- Percent Control [8]: 98%
- Percent Control [9]: 100%
- Percent Control [10]: 97%
- Percent Control [11]: 95%
- Percent Control [12]: 18%
- Percent Control [13]: 100%
- Percent Control [14]: 100%
- Percent Control [15]: 73%
- Percent Control [16]: 100%
- Percent Control [17]: 100%
- Percent Control [18]: 91%
- Percent Control [19]: 13%
- Percent Control [20]: 100%
- Percent Control [21]: 94%
- Percent Control [22]: 53%
- Percent Control [23]: 68%
- Percent Control [24]: 100%
- Percent Control [25]: 100%
- Percent Control [26]: 95%
- Percent Control [27]: 97%
- Percent Control [28]: 99%
- Percent Control [29]: 99%
- Percent Control [30]: 100%
- Percent Control [31]: 100%
